Where two headings read alike, the source gives them in different places.

The text below walks through data of patent publication US4413005A, “Carbamate derivatives and insecticidal, miticidal or nematocidal compositions containing the same” (priority 1981, dated 1983).

Data set [1] has as its system house fly (Musca domestica). As to the kind of experiment: Local application to house fly, LD50 by Probit method (Test Example 4). The class given is in vivo. Conditions: topical, 24 h. As for the experimental part:
The compound to be tested was dissolved in a predetermined amount of acetone. The solution was diluted to various concentrations and locally applied to house fly (Musca domestica).

For data set [2], the system named is tobacco cutworm (Spodoptera litura). As to the kind of experiment: Mortality of third-instar larvae of tobacco cutworm on cabbage (Test Example 1). The class given is in vivo. The procedure:
Ten third-instar larvae of tobacco cutworm (Spodoptera litura) were placed on a cabbage (one-month-old seedling) planted in a pot, and a 50% emulsion of the compound to be tested was diluted to a specified concentration and applied to the leaves of the plant to fully wet them. The test compound of each specified concentration was tested on two pots.

Data set [3] concerns green rice leafhopper (Nephotettix cincticeps). As to the kind of experiment: Mortality of female adults of green rice leafhopper on paddy rice (Test Example 2). The class given is in vivo. Particulars: 72 h. As for the experimental part: An emulsion of specified concentration was prepared from a 50% wettable powder of the compound to be tested and applied to the leaves of paddy rice (one-month-old seedlings) planted in a pot to fully wet the leaves. After the emulsion had been dried, the pot was covered with a net cage, into which 10 female adults of green rice leafhopper (Nephotettix cincticeps) were released. The compound of each specified concentration was tested on two pots.

Data set [4] can be described thus: Acute oral toxicity in male mice, LD50 by Litchfield-Wilcoxon method (Test Example 5). Conditions: mouse, in vivo, mortality on the seventh day. As for the experimental part: Compounds of this invention were tested on male mice for acute toxicity by oral administration.

For orientation: LD50 means the dose expected to kill half of the subjects tested. Low readings indicate a more toxic substance, high ones a less toxic substance. As usually defined, the mortality is the percentage killed. Take `CCOC(=O)CN(SN(C)C(=O)Oc1cccc2c1OC(C)(C)C2)C(C)CC` (stereo not shown) [Example 16]: the LD50 in data set [1] is 44.4 mg/kg. Further, in data set [2] (72 h), the mortality at 500 ppm came to 65%, the mortality at 1000 ppm was determined as 85% and the mortality at 2000 ppm is 100%. In data set [3], this molecule yielded a mortality at 200 ppm of 60%, a mortality at 400 ppm of 80% and a mortality at 800 ppm of 100%. Further, in data set [4], the LD50 at 168 h was found to be 110 mg/kg.

`CN(SN(CC(=O)OC1CCCCC1)CC(=O)OC1CCCCC1)C(=O)Oc1cccc2c1OC(C)(C)C2` [Example 5] had an LD50 in data set [1] of 75.6 mg/kg. In data set [2] (72 h), this molecule showed a mortality at 500 ppm of 65%, a mortality at 1000 ppm of 80% and a mortality at 2000 ppm of 100%. In data set [3], this molecule had a mortality at 200 ppm of 45%, a mortality at 400 ppm of 80% and a mortality at 800 ppm of 100%. In data set [4], the LD50 at 168 h came out at 90 mg/kg.

`CCOC(=O)CCCN(CC(=O)OCC)SN(C)C(=O)Oc1cccc2c1OC(C)(C)C2` [Example 10] yielded an LD50 in data set [1] of 46 mg/kg. Also, in data set [2] (72 h), the mortality at 500 ppm worked out at 75%, the mortality at 1000 ppm is 85% and the mortality at 2000 ppm amounted to 100%. In data set [3], this molecule registered a mortality at 200 ppm of 60%, a mortality at 400 ppm of 90% and a mortality at 800 ppm of 100%. Besides, the LD50 at 168 h in data set [4] is 115 mg/kg.

In the case of `CCOC(=O)CN(SN(C)C(=O)Oc1cccc2c1OC(C)(C)C2)c1ccccc1` [Example 13, 2,3-dihydro-2,2-dimethylbenzofuran-7-yl N-(N-phenyl-N-ethoxycarbonylmethylaminosulfenyl)-N-methylcarbamate], the LD50 in data set [1] was 12.5 mg/kg. In data set [2] (72 h), this molecule returned a mortality at 500 ppm of 75%, a mortality at 1000 ppm of 90% and a mortality at 2000 ppm of 100%. Further, in data set [3], the mortality at 200 ppm came to 65%, the mortality at 400 ppm amounted to 90% and the mortality at 800 ppm is 100%. For the same molecule, the LD50 at 168 h in data set [4] stood at 115 mg/kg.

As to `CCOC(=O)CN(C)SN(C)C(=O)Oc1cccc2c1OC(C)(C)C2` [Example 14, 2,3-Dihydro-2,2-dimethylbenzofuran-7-yl N-(N-methyl-N-ethoxycarbonylmethylaminosulfenyl)-N-methylcarbamate], in data set [1], the LD50 was determined as 9.9 mg/kg. In data set [2] (72 h), this molecule showed a mortality at 500 ppm of 75%, a mortality at 1000 ppm of 90% and a mortality at 2000 ppm of 100%. Moreover, in data set [3], the mortality at 200 ppm came out at 65%, the mortality at 400 ppm was determined as 90% and the mortality at 800 ppm came to 100%. Moreover, the LD50 at 168 h in data set [4] is 120 mg/kg.

As to `CN(SN(CCC#N)CCC#N)C(=O)Oc1cccc2c1OC(C)(C)C2` [Example 7, 2,3-dihydro-2,2-dimethylbenzofuran-7-yl N-[N,N-bis(cyanoethyl)aminosulfenyl]-N-methyl-carbamate], the LD50 in data set [1] was determined as 54 mg/kg. In data set [2] (72 h), this molecule displayed a mortality at 500 ppm of 60%, a mortality at 1000 ppm of 75% and a mortality at 2000 ppm of 100%. Also, in data set [3], the mortality at 200 ppm is 50%, the mortality at 400 ppm turned out to be 70% and the mortality at 800 ppm was 90%. For the same molecule, the LD50 at 168 h in data set [4] was found to be 75 mg/kg.

With `CCOC(=O)CN(SN(C)C(=O)Oc1cccc2c1OC(C)(C)C2)C(C)C` [Example 15], in data set [1], the LD50 is 33 mg/kg. Also, in data set [2] (72 h), the mortality at 500 ppm worked out at 75%, the mortality at 1000 ppm was determined as 90% and the mortality at 2000 ppm was 100%. In data set [3], the mortality at 200 ppm is 65%, the mortality at 400 ppm was determined as 90% and the mortality at 800 ppm turned out to be 100%. This molecule also gave an LD50 at 168 h in data set [4] of 110 mg/kg.

In turn, `CCOC(=O)CN(Cc1ccccc1)SN(C)C(=O)Oc1cccc2c1OC(C)(C)C2` [Example 19] gave an LD50 in data set [1] of 22.2 mg/kg. In data set [2] (72 h), this molecule returned a mortality at 500 ppm of 65%, a mortality at 1000 ppm of 85% and a mortality at 2000 ppm of 100%. For the same molecule, in data set [3], the mortality at 200 ppm is 60%, the mortality at 400 ppm was 80% and the mortality at 800 ppm turned out to be 100%. Moreover, the LD50 at 168 h in data set [4] is 108 mg/kg.

Molecule `CCOC(=O)CN(SN(C)C(=O)Oc1cccc2c1OC(C)(C)C2)C1CCCCC1` [Example 18] had an LD50 in data set [1] of 32.5 mg/kg. Besides, in data set [2] (72 h), the mortality at 500 ppm was 75%, the mortality at 1000 ppm is 90% and the mortality at 2000 ppm turned out to be 100%. In data set [3], this molecule had a mortality at 200 ppm of 65%, a mortality at 400 ppm of 90% and a mortality at 800 ppm of 100%. For the same molecule, the LD50 at 168 h in data set [4] amounted to 135 mg/kg.

As for `CCOC(=O)CN(SN(C)C(=O)Oc1cccc2c1OC(C)(C)C2)c1cccc(C)c1` [Example 21], the 50% lethal dose (LD50) in data set [1] was found to be 10.4 mg/kg. In data set [2] (72 h), the mortality at 500 ppm worked out at 75%, the mortality at 1000 ppm was found to be 90% and the mortality at 2000 ppm amounted to 100%. In data set [3], this molecule displayed a mortality at 200 ppm of 65%, a mortality at 400 ppm of 90% and a mortality at 800 ppm of 100%. Moreover, the LD50 at 168 h in data set [4] came to 105 mg/kg.

In turn, `CCCCN(CC(=O)OCC)SN(C)C(=O)Oc1cccc2c1OC(C)(C)C2` [Example 12, 2,3-dihydro-2,2-dimethylbenzofuran-7-yl N-(N-butyl-N-ethoxycarbonylmethylaminosulfenyl)-N-methyl-carbamate] showed an LD50 in data set [1] of 16.7 mg/kg. In data set [2] (72 h), this molecule yielded a mortality at 500 ppm of 75%, a mortality at 1000 ppm of 90% and a mortality at 2000 ppm of 100%. In data set [3], this molecule displayed a mortality at 200 ppm of 65%, a mortality at 400 ppm of 90% and a mortality at 800 ppm of 100%. In addition, the 50% lethal dose (LD50) at 168 h in data set [4] is 125 mg/kg.

As for `CCOC(=O)CCN(CCC(=O)OCC)SN(C)C(=O)Oc1cccc2c1OC(C)(C)C2` [Example 6, 2,3-dihydro-2,2-dimethylbenzofuran-7-yl N-[N,N-bis(ethoxycarbonylethyl)aminosulfenyl]-N-methylcarbamate], in data set [1], the LD50 worked out at 38.3 mg/kg. In data set [2] (72 h), this molecule yielded a mortality at 500 ppm of 60%, a mortality at 1000 ppm of 75% and a mortality at 2000 ppm of 100%. Besides, in data set [3], the mortality at 200 ppm came to 55%, the mortality at 400 ppm is 75% and the mortality at 800 ppm was 95%. In data set [4], this molecule yielded an LD50 at 168 h of 135 mg/kg.

Take `CCOC(=O)CN(SN(C)C(=O)Oc1cccc2c1OC(C)(C)C2)C(=O)CCl` [Example 45]: the LD50 in data set [1] is 29.2 mg/kg. Also, in data set [2] (72 h), the mortality at 500 ppm is 75%, the mortality at 1000 ppm came out at 90% and the mortality at 2000 ppm stood at 100%. In data set [3], this molecule had a mortality at 200 ppm of 65%, a mortality at 400 ppm of 90% and a mortality at 800 ppm of 100%. In data set [4], this molecule returned a 50% lethal dose (LD50) at 168 h of 80 mg/kg.

With `CCOC(=O)CCN(SN(C)C(=O)Oc1cccc2c1OC(C)(C)C2)C(C)C` [Example 23, 2,3-Dihydro-2,2-dimethylbenzofuran-7-yl N-(N-isopropyl-N-ethoxycarbonylethylaminosulfenyl)-N-methylcarbamate], the LD50 in data set [1] is 44.3 mg/kg. Besides, the mortality at 500 ppm in data set [2] (72 h, 500 ppm active ingredient, 50% emulsion diluted, three days later, read-out: Mortality) worked out at 70%. Moreover, in data set [2] (72 h, 1,000 ppm active ingredient, 50% emulsion diluted, three days later, read-out: Mortality), the mortality at 1000 ppm was 85%. The mortality at 2000 ppm in data set [2] (72 h, 2,000 ppm active ingredient, 50% emulsion diluted, three days later, read-out: Mortality) came out at 100%. In addition, the mortality at 200 ppm in data set [3] (200 ppm active ingredient, from 50% wettable powder, three days later, read-out: Mortality) was found to be 55%. For the same molecule, the mortality at 400 ppm in data set [3] (400 ppm active ingredient, from 50% wettable powder, three days later, read-out: Mortality) was found to be 85%. The mortality at 800 ppm in data set [3] (800 ppm active ingredient, from 50% wettable powder, three days later, read-out: Mortality) was determined as 100%. For the same molecule, the LD50 at 168 h in data set [4] worked out at 113 mg/kg.

In data set [1], `CCOC(=O)CN(CC(=O)OCC)SN(C)C(=O)Oc1cccc2c1OC(C)(C)C2` [Example 2, 2,3-dihydro-2,2-dimethylbenzofuran-7-yl N-[N,N-bis(ethoxycarbonylmethyl)aminosulfenyl]-N-methylcarbamate] came in with an LD50 of 58.8 mg/kg. Besides, in data set [2] (72 h), the mortality at 500 ppm turned out to be 60%, the mortality at 1000 ppm was found to be 70% and the mortality at 2000 ppm turned out to be 100%. In data set [3], this molecule showed a mortality at 200 ppm of 45%, a mortality at 400 ppm of 85% and a mortality at 800 ppm of 100%. The same molecule displayed an LD50 at 168 h in data set [4] of 140 mg/kg.

As for `CCCCC(CC)COC(=O)CCN(SN(C)C(=O)Oc1cccc2c1OC(C)(C)C2)C(C)C` (stereo not shown) [Example 26], the LD50 in data set [1] amounted to 64.7 mg/kg. In data set [2] (72 h), the mortality at 500 ppm was found to be 60%, the mortality at 1000 ppm is 80% and the mortality at 2000 ppm was 100%. In data set [3], this molecule returned a mortality at 200 ppm of 55%, a mortality at 400 ppm of 75% and a mortality at 800 ppm of 100%. Also, the LD50 at 168 h in data set [4] was determined as 150 mg/kg.

Take `CC(C)N(CCC#N)SN(C)C(=O)Oc1cccc2c1OC(C)(C)C2` [Example 38]: the LD50 in data set [1] came out at 17.5 mg/kg. In addition, in data set [2] (72 h), the mortality at 500 ppm was found to be 75%, the mortality at 1000 ppm stood at 90% and the mortality at 2000 ppm came to 100%. Also, in data set [3], the mortality at 200 ppm was found to be 70%, the mortality at 400 ppm was determined as 90% and the mortality at 800 ppm came out at 100%. The molecule also yielded an LD50 at 168 h in data set [4] of 125 mg/kg.
